# PubChem BioAssay (NCI)
#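 Five compound concentrations were applied to cells in 96-well plates for 48 hours; endpoints were derived by simple linear interpolation of the resulting dose-response curve. Definition used: TGI = concentration required for complete inhibition of growth.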
# Test system: RXF 393 renal
# Assay: NCI anticancer screen, dose series, 48 h
row,SMILES,TGI
1,CCOC(=O)N1CCN(Cc2cc(=O)n3ccc(C)cc3n2)CC1,> 100 µM
2,COc1cccc(C2SC(N)=Nc3c2c(C)nn3C(=O)c2ccccc2O)c1 (stereo not given),> 10 µM
3,N#CC(NCc1cccc(CNC(C#N)c2ccccc2)c1)c1ccccc1 (stereo not given),> 100 µM

# Test system: A498 renal
# Assay: NCI anticancer screen, dose series, 48 h
row,SMILES,TGI
1,CCOC(=O)N1CCN(Cc2cc(=O)n3ccc(C)cc3n2)CC1,> 100 µM
2,COc1cccc(C2SC(N)=Nc3c2c(C)nn3C(=O)c2ccccc2O)c1 (stereo not given),> 10 µM
3,N#CC(NCc1cccc(CNC(C#N)c2ccccc2)c1)c1ccccc1 (stereo not given),> 100 µM

# Test system: MDA-MB-231 breast
# Assay: NCI anticancer screen, dose series, 48 h
row,SMILES,TGI
1,CCOC(=O)N1CCN(Cc2cc(=O)n3ccc(C)cc3n2)CC1,> 100 µM
2,COc1cccc(C2SC(N)=Nc3c2c(C)nn3C(=O)c2ccccc2O)c1 (stereo not given),> 9.64 µM
3,N#CC(NCc1cccc(CNC(C#N)c2ccccc2)c1)c1ccccc1 (stereo not given),74.2 µM

# Test system: HCC-2998 colon
# Assay: NCI anticancer screen, dose series, 48 h
row,SMILES,TGI
1,CCOC(=O)N1CCN(Cc2cc(=O)n3ccc(C)cc3n2)CC1,> 100 µM
2,COc1cccc(C2SC(N)=Nc3c2c(C)nn3C(=O)c2ccccc2O)c1 (stereo not given),> 10 µM
3,N#CC(NCc1cccc(CNC(C#N)c2ccccc2)c1)c1ccccc1 (stereo not given),28.1 µM

# Test system: OVCAR-5 ovarian
# Assay: NCI anticancer screen, dose series, 48 h
row,SMILES,TGI
1,CCOC(=O)N1CCN(Cc2cc(=O)n3ccc(C)cc3n2)CC1,> 100 µM
2,COc1cccc(C2SC(N)=Nc3c2c(C)nn3C(=O)c2ccccc2O)c1 (stereo not given),> 10 µM
3,N#CC(NCc1cccc(CNC(C#N)c2ccccc2)c1)c1ccccc1 (stereo not given),> 100 µM

# Test system: BT-549 breast
# Assay: NCI anticancer screen, dose series, 48 h
row,SMILES,TGI
1,CCOC(=O)N1CCN(Cc2cc(=O)n3ccc(C)cc3n2)CC1,> 100 µM
2,COc1cccc(C2SC(N)=Nc3c2c(C)nn3C(=O)c2ccccc2O)c1 (stereo not given),> 10 µM
3,N#CC(NCc1cccc(CNC(C#N)c2ccccc2)c1)c1ccccc1 (stereo not given),87 µM

# Test system: MCF7 breast
# Assay: NCI anticancer screen, dose series, 48 h
row,SMILES,TGI
1,CCOC(=O)N1CCN(Cc2cc(=O)n3ccc(C)cc3n2)CC1,> 100 µM
2,COc1cccc(C2SC(N)=Nc3c2c(C)nn3C(=O)c2ccccc2O)c1 (stereo not given),> 10 µM
3,N#CC(NCc1cccc(CNC(C#N)c2ccccc2)c1)c1ccccc1 (stereo not given),56.6 µM

# Test system: K-562 leukemia
# Assay: NCI anticancer screen, dose series, 48 h
row,SMILES,TGI
1,CCOC(=O)N1CCN(Cc2cc(=O)n3ccc(C)cc3n2)CC1,> 100 µM
2,COc1cccc(C2SC(N)=Nc3c2c(C)nn3C(=O)c2ccccc2O)c1 (stereo not given),> 10 µM
3,N#CC(NCc1cccc(CNC(C#N)c2ccccc2)c1)c1ccccc1 (stereo not given),31.9 µM

# Test system: OVCAR-3 ovarian
# Assay: NCI anticancer screen, dose series, 48 h
row,SMILES,TGI
1,CCOC(=O)N1CCN(Cc2cc(=O)n3ccc(C)cc3n2)CC1,> 100 µM
2,COc1cccc(C2SC(N)=Nc3c2c(C)nn3C(=O)c2ccccc2O)c1 (stereo not given),> 7.61 µM
3,N#CC(NCc1cccc(CNC(C#N)c2ccccc2)c1)c1ccccc1 (stereo not given),> 100 µM

# Test system: UO-31 renal
# Assay: NCI anticancer screen, dose series, 48 h
row,SMILES,TGI
1,CCOC(=O)N1CCN(Cc2cc(=O)n3ccc(C)cc3n2)CC1,> 100 µM
2,COc1cccc(C2SC(N)=Nc3c2c(C)nn3C(=O)c2ccccc2O)c1 (stereo not given),> 10 µM
3,N#CC(NCc1cccc(CNC(C#N)c2ccccc2)c1)c1ccccc1 (stereo not given),> 100 µM
